Results: PubChem BioAssay (NCI)
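How tested: cells in 96-well plates exposed to compound for 48 hours at five concentrations. Definition used: TGI = concentration required for complete inhibition of growth.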

What was measured:
Assay in all cases: NCI anticancer screen, dose series, 48 h
HOP-62 NSCLC = tested on: HOP-62 NSCLC
MALME-3M melanoma = tested on: MALME-3M melanoma
SW-620 colon = tested on: SW-620 colon
A498 renal = tested on: A498 renal
LOX IMVI melanoma = tested on: LOX IMVI melanoma
NCI-H23 lung = tested on: NCI-H23 lung
TK-10 renal = tested on: TK-10 renal
SK-OV-3 ovarian = tested on: SK-OV-3 ovarian

SMILES	TGI (HOP-62 NSCLC) [µM]	TGI (MALME-3M melanoma) [µM]	TGI (SW-620 colon) [µM]	TGI (A498 renal) [µM]	TGI (LOX IMVI melanoma) [µM]	TGI (NCI-H23 lung) [µM]	TGI (TK-10 renal) [µM]	TGI (SK-OV-3 ovarian) [µM]
COC(=O)[C@]1(C)CCC[C@]2(C)C3CC4OOC3(C=C4C(C)C)CCC21 (some centres not stated)	61.5	41.6	34.8	23.5	11.5	32.8	82.1	34.4
C=C1CCC2C(C)(CO)C(O)CCC2(C)C1CC(O)C1=CCOC1=O (configuration not stated)	> 100	> 100	51.3	> 100	> 100	> 100	> 100	> 100
N#Cc1ccccc1/C=N/O	> 100	> 100	> 51.8	> 100	> 100	> 100	> 100	> 100
CCCN1CN(C(C(=O)N[C@@H]2C(=O)N3C(C(=O)O)=C(C)CSC23)c2ccccc2)CSC1=S (some centres not stated)	> 100	> 100	–	> 100	> 100	> 100	> 100	> 100
C/C(CC(=O)Nc1ccc([N+](=O)[O-])cc1)=N/N=C(N)N	> 100	> 100	> 100	–	> 100	> 100	> 100	> 100
O=C(Nc1ccc(Cl)cc1Cl)/C(Cl)=C1/Sc2ccccc2NC1=O	> 100	77.9	> 100	> 100	> 100	55	> 100	80.4
Cc1ccc(S(=O)(=O)NC(=O)Nc2nc(Cl)cc(Cl)n2)cc1	> 100	> 100	> 100	> 100	> 100	> 100	> 100	> 100
O=c1nc2[nH]nc(-c3ccccc3)c2n[nH]1	> 100	–	> 100	> 100	> 100	> 100	> 100	–
C=CCn1c(=S)sc2c(=O)[nH]cnc21	> 100	> 100	> 100	> 100	> 100	> 100	> 100	> 100
Cc1ccccc1C(C#N)/C(=N/NC(=O)C(=O)NN)C(=O)Nc1cccc(C(F)(F)F)c1 (configuration not stated)	> 100	> 100	> 100	> 100	–	> 100	> 100	–
COc1cc([C@@H]2c3cc4c(cc3[C@@H](NC(=O)c3ccc([N+](=O)[O-])cc3)C3COC(=O)[C@@H]32)OCO4)cc(OC)c1O (some centres not stated)	1.12	4.89	4.21	3.9	5.86	1.46	5.86	1.89
C/C(CN1C(=O)c2ccccc2C1=O)=N\NS(C)(=O)=O	> 100	> 100	> 100	> 100	–	> 100	> 100	> 100
O=CN/C=C/c1ccccc1O	> 100	> 100	> 100	> 100	> 100	> 100	> 100	> 100
Cn1c(C2CC(C)(C)c3c2c2ccccc2n3C)cc2ccccc21 (configuration not stated)	> 304	> 304	> 304	–	> 304	> 304	> 304	> 304
O=C1CSc2ccncc2N1	> 100	> 100	> 100	> 100	> 100	> 100	> 100	–
Cn1c(-c2ccccc2)c/c(=N\NS(C)(=O)=O)c2cc(S(=O)(=O)O)ccc21	> 100	> 100	> 100	–	> 100	> 100	> 100	> 100
COC(=O)c1c/c(=N\NC(=O)CC(=O)Nc2ccc(C)cc2)c2ccccc2o1	> 100	> 100	> 100	> 100	> 100	> 100	> 100	> 100
COC(=O)c1cc(O)ccc1NC(=O)c1ccc(O)cc1	> 100	> 100	> 100	–	> 100	> 100	> 100	> 100
O=C1CC23CC(=O)CC2(C1)c1ccccc1C3=O (configuration not stated)	> 100	> 100	> 100	–	> 100	> 100	> 100	> 100
FC(F)(F)c1ccccc1C=NC12CC3CC(CC(C3)C1)C2	> 100	> 100	> 100	> 100	> 100	> 100	> 100	> 100
COC(=O)C1CCc2nnc(-c3cccnc3)n21 (configuration not stated)	> 100	> 100	> 100	> 100	–	–	> 100	> 100
NC(CCCNCc1ccccc1O)C(=O)O (configuration not stated)	> 100	> 100	> 100	> 100	> 100	> 100	> 100	> 100
Clc1ccc(CCn2cncn2)c(Cl)c1	> 100	–	> 100	–	–	> 100	> 100	> 100
